Assay results reported in patent US9521847B2, “Synergistic weed control from applications of pyridine carboxylic acid herbicides and synthetic auxin herbicides and/or auxin transport inhibitors” (Dow AgroSciences LLC, priority 2014, dated 2016).
“And” between values parts separate entries of the source, which are not always exact repeats. Equal values may be shown once. Read-outs that look alike come from different tables or passages of the source.

Assays:
[1] = system: wild pansy (Viola tricolor, VIOTR); assay: Greenhouse postemergence trial, % visual injury; conditions: for % visual injury, Obs: VIOTR
[2] = system: Roundup Ready rape (Brassica napus, BRSNN-RR); assay: Greenhouse postemergence trial, % visual injury; assay type: in vivo
[3] = system: sunflower (Helianthus annus, HELAN); assay: Greenhouse postemergence trial, % visual injury; assay type: in vivo; conditions: HELAN
[4] = system: brown mustard (Brassica juncea, BRSJU); assay: Greenhouse postemergence trial, % visual injury; assay type: in vivo; conditions: BRSJU; 2,3,5-TIBA 140 g ai/ha
[5] = system: spring rape (Brassica napus, BRSNN); assay: Greenhouse postemergence trial, % visual injury; conditions: for % visual injury, Obs: BRSNN
[6] = system: wild buckwheat (Polygonum convolvulus, POLCO); assay: Greenhouse postemergence trial, % visual injury; assay type: in vivo; conditions: for % visual injury, Obs: POLCO
[7] = system: winter rape (BRSNW, Brassica napus); assay: Greenhouse postemergence trial, % visual injury; assay type: in vivo; conditions: for % visual injury, Obs: BRSNW
[8] = system: Chinese kale (Brassica alboglabra, BRSAG); assay: Greenhouse postemergence trial, % visual injury; assay type: in vivo; conditions: BRSAG
common rice (ORYSA) = assay: Greenhouse postemergence trial, crop phytotoxicity (% visual injury); conditions: ORYSA
[9] = system: velvetleaf (Abutilon theophrasti, ABUTH); assay: Greenhouse postemergence trial, % visual injury; assay type: in vivo; conditions: Abutilon theophrasti, post-emergence, read-out: % visual injury, Obs; for pest or weed control at 5 g/ha / pest or weed control at 10 g/ha: ABUTH
[10] = system: turnip (Brassica rapa, BRSRR); assay: Greenhouse postemergence trial, % visual injury; assay type: in vivo; conditions: for % visual injury, Obs: BRSRR
maize (ZEAMX) [11] = assay: Greenhouse postemergence trial, crop phytotoxicity (% visual injury); conditions: ZEAMX
winter wheat (TRZAW) [12] = assay: as above; conditions: TRZAW
[13] = system: wild radish (Raphanus raphanistrum, RAPRA); assay: Greenhouse postemergence trial, % visual injury; assay type: in vivo
[14] = system: ivyleaf morningglory (Ipomoea hederacea, IPOHE); assay: Greenhouse postemergence trial, % visual injury; conditions: Ipomoea, post-emergence
maize (ZEAMX) [15] = conditions: maize (Zea mays), in vivo
[16] = system: grain sorghum (Sorghum vulgare, SORVU); assay: Greenhouse postemergence trial, % visual injury; assay type: in vivo; conditions: SORVU
[17] = system: wild oat (Avena fatua, VEFA); assay: Greenhouse postemergence trial, % visual injury; assay type: in vivo; conditions: AVEFA
[18] = system: pigweed (AMARE, Amaranthus retroflexus); assay: Greenhouse postemergence trial, % visual injury; assay type: in vivo; conditions: AMARE
winter wheat (TRZAW) [19] = conditions: winter wheat (Triticum aestivum), in vivo
[20] = system: Russian thistle (Salsola iberica, SASKR); assay: Greenhouse postemergence trial, % visual injury; assay type: in vivo; conditions: SASKR
[21] = system: Indian hedge mustard (Sisymbrium orientale, SSYOR); assay: Greenhouse postemergence trial, % visual injury; assay type: in vivo
[22] = system: large crabgrass (Digitaria sanguinalis, DIGSA); assay: Greenhouse postemergence trial, % visual injury; assay type: in vivo; conditions: DIGSA
[23] = system: wild mustard (Sinapis arvensis, SINAR); assay: Greenhouse postemergence trial, % visual injury; assay type: in vivo; conditions: for % visual injury, Obs: SINAR
[24] = system: kochia (KCHSC, Kochia scoparia); assay: Greenhouse postemergence trial, % visual injury; assay type: in vivo; conditions: for % visual injury, Obs.: Table 61
Protocol: Following the protocol in Example 1, compound 1 and compound 2 were combined with 2,4 D EHE (EC) and applied to kochia (KCHSC, Kochia scoparia) and the phytotoxicity of the herbicidal compositions was measured.
Following the protocol in Example 1, compound 1 (EC) and Compound 2 (SC) were combined with diflufenzopyr and applied to kochia (Kochia scoparia, KCHSC) and the phytotoxicity of the herbicidal composition was measured.

[25] = system: black mustard (Brassica nigra, BRSNI); assay: Greenhouse postemergence trial, % visual injury; assay type: in vivo
[26] = system: nutsedge (Cyperus esculentus, CYPES); assay: Greenhouse postemergence trial, % visual injury; assay type: in vivo; conditions: CYPES
[27] = system: blackgrass (Alopecurus myosuroides, ALOMY); assay: Greenhouse postemergence trial, % visual injury; assay type: in vivo
[28] = system: poinsettia (Euphorbia heterophylla, EPHHL); assay: Greenhouse postemergence trial, % visual injury; conditions: Euphorbia heterophylla, post-emergence
[29] = system: common lambsquarters (CHEAL, Chenopodium album L.); assay: Greenhouse postemergence trial, % visual injury; assay type: in vivo; conditions: CHEAL
[30] = system: rutabaga (Brassica napus var. napobrassica, BRSNA); assay: Greenhouse postemergence trial, % visual injury; assay type: in vivo; conditions: BRSNA; naptalam 140 g ai/ha
[31] = system: Canadian thistle (CIRAR, Cirsium arvense); assay: Greenhouse postemergence trial, % visual injury; conditions: CIRAR; naptalam 140 g ai/ha;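 further: plants sprayed at second to third true leaf stage, injury scored visually 20-22 d later against solvent-blank sprayed controls, 0 meaning no injury and 100 complete kill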
[32] = Brassica napus, post-emergence, read-out: % visual injury, Obs

O=C(O)c1cc(I)cc(I)c1I [2,3,5-TIBA, 2,3,5-triiodobenzoic acid, reference compound]
% visual injury, Obs ([1]; 2,3,5-TIBA 140 g ai/ha): 0%
% visual injury, Obs ([2]; 2,3,5-TIBA 140 g ai/ha): 0%
% visual injury, Obs ([3]; 2,3,5-TIBA 140 g ai/ha): 0%
% visual injury, Obs [4]: 10%
plant injury at 140 g/ha [5, 32]: 5%
% visual injury, Obs ([6]; 2,3,5-TIBA 140 g ai/ha): 0%
% visual injury, Obs ([7]; 2,3,5-TIBA 140 g ai/ha): 0%
% visual injury, Obs ([8]; 2,3,5-TIBA 140 g ai/ha): 0%
% visual injury, Obs (common rice (ORYSA); 2,3,5-TIBA 140 g ai/ha): 0%
pest or weed control at 140 g/ha [9]: 0%
% visual injury, Obs ([10]; 2,3,5-TIBA 140 g ai/ha): 20%
% visual injury, Obs (maize (ZEAMX) [11]; 2,3,5-TIBA 140 g ai/ha): 0%
% visual injury, Obs (winter wheat (TRZAW) [12]; 2,3,5-TIBA 140 g ai/ha): 0%

Nc1c(F)c(-c2ccc3cc[nH]c3c2F)nc(C(=O)OCc2ccccc2)c1Cl [compound 2]
% visual injury (Obs) ([13]; compound 2 SC 2.5 g ae/ha): 17%
% visual injury (Obs) ([13]; compound 2 SC 5 g ae/ha): 25%
pest or weed control at 5 g/ha ([14]; read-out: % visual injury, Obs, IPOHE, 5 g ae/ha): 10%
pest or weed control at 10 g/ha ([14]; read-out: % visual injury, Obs, IPOHE, 10 g ae/ha): 20%
pest or weed control at 5 g/ha ([14]; read-out: % visual injury, Obs, IPOHE, compound 2 (EC) 5 g ae/ha): 10%
pest or weed control at 10 g/ha ([14]; read-out: % visual injury, Obs, IPOHE, compound 2 (EC) 10 g ae/ha): 20%
% visual injury, Obs (maize (ZEAMX) [15]): 3%
% visual injury, Obs ([16]; 5 g ae/ha): 38%
% visual injury, Obs ([16]; 10 g ae/ha): 63%
% visual injury, Obs ([1]; 5 g ae/ha): 15%
% visual injury, Obs ([1]; 10 g ae/ha): 40%
% visual injury, Obs ([1]; compound 2 (EC) 5 g ae/ha): 15%
% visual injury, Obs ([1]; compound 2 (EC) 10 g ae/ha): 40%
% visual injury (Obs) ([1]; compound 2 SC 2.5 g ae/ha): 13%
% visual injury (Obs) ([1]; compound 2 SC 5 g ae/ha): 23%
% visual injury, Obs ([17]; 5 g ae/ha): 0%
% visual injury, Obs ([17]; 10 g ae/ha): 0%
% visual injury, Obs ([18]; 5 g ae/ha): 88% and 65%
% visual injury, Obs ([18]; 10 g ae/ha): 100% and 60%
% visual injury, Obs ([18]; compound 2 (EC) 5 g ae/ha): 88%
% visual injury, Obs ([18]; compound 2 (EC) 10 g ae/ha): 100%
% visual injury, Obs (winter wheat (TRZAW) [19]): 3%
% visual injury, Obs ([20]; 5 g ae/ha): 10%
% visual injury, Obs ([20]; 10 g ae/ha): 10%
% visual injury (Obs) ([21]; compound 2 SC 2.5 g ae/ha): 20%
% visual injury (Obs) ([21]; compound 2 SC 5 g ae/ha): 40%
% visual injury, Obs ([5]; compound 2 (EC) 5 g ae/ha): 30%
% visual injury, Obs ([5]; compound 2 (EC) 10 g ae/ha): 55%
plant injury at 5 g/ha [5, 32]: 30%
plant injury at 10 g/ha [5, 32]: 55%
% visual injury (Obs) ([6]; compound 2 SC 5 g ae/ha): 30%
% visual injury (Obs) ([6]; compound 2 SC 10 g ae/ha): 50%
% visual injury, Obs ([22]; compound 2 (EC) 5 g ae/ha): 28%
% visual injury, Obs ([22]; compound 2 (EC) 10 g ae/ha): 53%
pest or weed control at 5 g/ha ([22]; Digitaria sanguinalis, post-emergence, 5 g ae/ha, read-out: % visual injury, Obs): 28%
pest or weed control at 10 g/ha ([22]; Digitaria sanguinalis, post-emergence, 10 g ae/ha, read-out: % visual injury, Obs): 53%
% visual injury, Obs ([23]; 5 g ae/ha): 95%
% visual injury, Obs ([23]; 10 g ae/ha): 100%
% visual injury (Obs) ([23]; compound 2 SC 2.5 g ae/ha): 87%
% visual injury (Obs) ([23]; compound 2 SC 5 g ae/ha): 100% and 94%
% visual injury (Obs) ([23]; compound 2 SC 10 g ae/ha): 100%
% visual injury, Obs ([7]; 5 g ae/ha): 30%
% visual injury, Obs ([7]; 10 g ae/ha): 50%
% visual injury (Obs) ([7]; compound 2 SC 5 g ae/ha): 50%
% visual injury (Obs) ([7]; compound 2 SC 10 g ae/ha): 50%
% visual injury Obs ([24]; 8.75 g ae/ha alone, 20-22 d): 55%
pest or weed control at 5 g/ha ([24]; Bassia scoparia, post-emergence, KCHSC, 5 g ae/ha, read-out: % visual injury, Obs): 30%
pest or weed control at 10 g/ha ([24]; Bassia scoparia, post-emergence, KCHSC, 10 g ae/ha, read-out: % visual injury, Obs): 75%
% visual injury, Obs. ([24]; KCHSC, compound 2 (SC) 8.75 g ae/ha): 84%
% visual injury, Obs. ([24]; KCHSC, compound 2 (SC) 17.5 g ae/ha): 86%
% visual injury (Obs) ([25]; compound 2 SC 2.5 g ae/ha): 30%
% visual injury (Obs) ([25]; compound 2 SC 5 g ae/ha): 70%
% visual injury, Obs ([26]; 5 g ae/ha): 5%
% visual injury, Obs ([26]; 10 g ae/ha): 10%
% visual injury, Obs ([26]; compound 2 (EC) 5 g ae/ha): 5%
% visual injury, Obs ([26]; compound 2 (EC) 10 g ae/ha): 10%
% visual injury, Obs ([27]; 5 g ae/ha): 0%
% visual injury, Obs ([27]; 10 g ae/ha): 0%
pest or weed control at 5 g/ha ([9]; 5 g ae/ha): 78%
pest or weed control at 10 g/ha ([9]; 10 g ae/ha): 95%
pest or weed control at 5 g/ha ([9]; compound 2 (EC) 5 g ae/ha): 78%
pest or weed control at 10 g/ha ([9]; compound 2 (EC) 10 g ae/ha): 95%
pest or weed control at 5 g/ha ([28]; read-out: % visual injury, Obs, EPHHL, 5 g ae/ha): 35%
pest or weed control at 10 g/ha ([28]; read-out: % visual injury, Obs, EPHHL, 10 g ae/ha): 75%
pest or weed control at 5 g/ha ([28]; read-out: % visual injury, Obs, EPHHL, compound 2 (EC) 5 g ae/ha): 35%
pest or weed control at 10 g/ha ([28]; read-out: % visual injury, Obs, EPHHL, compound 2 (EC) 10 g ae/ha): 75%
% visual injury (Obs) ([10]; compound 2 SC 2.5 g ae/ha): 23%
% visual injury (Obs) ([10]; compound 2 SC 5 g ae/ha): 67%
% visual injury, Obs ([29]; 5 g ae/ha): 88%
% visual injury, Obs ([29]; 10 g ae/ha): 99%

O=C(O)c1ccccc1C(=O)Nc1cccc2ccccc12 [naptalam, reference compound]
% visual injury, Obs ([1]; naptalam 140 g ai/ha): 0%
% visual injury, Obs ([2]; naptalam 140 g ai/ha): 0%
% visual injury, Obs ([3]; naptalam 140 g ai/ha): 0%
% visual injury, Obs [30]: 0%
% visual injury, Obs [31]: 0%
% visual injury, Obs ([6]; naptalam 140 g ai/ha): 0%
% visual injury, Obs ([7]; naptalam 140 g ai/ha): 0%
% visual injury, Obs ([8]; naptalam 140 g ai/ha): 0%
% visual injury, Obs (common rice (ORYSA); naptalam 140 g ai/ha): 0%
pest or weed control at 140 g/ha [9]: 0%
% visual injury, Obs ([10]; naptalam 140 g ai/ha): 0%
% visual injury, Obs (maize (ZEAMX) [11]; naptalam 140 g ai/ha): 0%
% visual injury, Obs (winter wheat (TRZAW) [12]; naptalam 140 g ai/ha): 0%
